From patent US10342773B2, “Composition containing dihomo-γ-linolenic acid (DGLA) as the active ingredient” (SUNTORY HOLDINGS LIMITED, priority 2005, dated 2019)
Where two headings read alike, the source gives them in different places. Each block holds one molecule with its values, some of them ahead of it.

Legend:
NC/Nga mice = conditions: cited from earlier work
[1] = in vivo
Protocol: In order to clarify the relationship between the amount of DGLA orally ingested in humans and the internal DGLA level, the amount of DGLA orally ingested was investigated by examination of the diet, and after drawing blood, the amount of DGLA in the serum phospholipids was determined. The subjects were eleven healthy males aged 60-70, and were asked to keep a diary of the content of their diets. From the diary, the amount ingested by each food material was determined for meat, eggs, and seafood known to contain DGLA, and using the DGLA content of each food material calculated from “Fourth revised [sequence] […] From the amount of DGLA ingested per week, the mean amount of DGLA ingested per day was calculated for each person.
On the other hand, blood was drawn the day after the last entry of the diary, and for the serum phospholipid fractions obtained, the fatty acid composition was analyzed according to a standard method. Thus, from the serum the lipid component extracted by the Folch method, a standard method, and the lipid was fractionated on a thin layer chromatography (the developing solution is hexane/diethyl ether=7/3) to obtain the phospholipid fraction. […] The fatty acid methyl ester mixture was analyzed by a capillary gas chromatography to obtain DGLA (% by weight) in the total fatty acids in the serum phospholipid.

eosinophil migration = conditions: guinea pigs, cited from earlier work

Structure (SMILES): CC/C=C\C/C=C\C/C=C\CCCCCCCC(=O)O [ALA, α-linolenic acid]
prevention of atopic dermatitis (correction of dermatitis symptoms and blood IgE) (NC/Nga mice; same mouse model, diet containing a large amount of ALA, exact dose not known): no effect of preventing atopic dermatitis

amount of DGLA required to increase DGLA in serum phospholipid about 3% by weight [1]: about 100 mg per day
increase of DGLA in the serum phospholipid with each increase of about 32 mg in the amount of DGLA ingested [1]: 1 % by weight
Structure (SMILES): CCCCC/C=C\C/C=C\C/C=C\CCCCCCC(=O)O [DGLA, dihomo-γ-linolenic acid]

Structure (SMILES): CC/C=C\C/C=C\C/C=C\C/C=C\C/C=C\C/C=C\CCC(=O)OCC [DHA ethylester]
eosinophil migration in the delayed type allergy (eosinophil migration; intraperitoneal administration of 50 mg): can inhibit eosinophil migration

Structure (SMILES): CC/C=C\C/C=C\C/C=C\C/C=C\C/C=C\CCCC(=O)OCC [EPA ethylester]
eosinophil migration in the delayed type allergy (eosinophil migration; intraperitoneal administration of 100 mg): can inhibit eosinophil migration

Structure (SMILES): CCCCC/C=C\C/C=C\C/C=C\CCCCC(=O)O [GLA, γ-linolenic acid]
formation of atopic dermatitis and IgE production (NC/Nga mice; NC/Nga mice, oral ingestion about 1250 mg/kg/day): effects of inhibiting the formation of atopic dermatitis and IgE production
